Like-named read-outs stand apart in the source and are kept apart here.
Columns and labels:
[1] = molecular target: MCL-1/Bim interaction (recombinant human MCL-1 protein, residues 171-327; biotinylated human Bim peptide, residues 51-76) (Homo sapiens (Human), UniProt Q07820); experiment: MCL-1/Bim Binding AlphaLISA Assay; conditions: 0.0625 nM 6xHis-Mcl-1 (171-327), 0.0625 nM biotinylated-Bim peptide
Method: MCL-1/Bim Binding AlphaLISA Assay.
Inhibition of the MCL-1 and Bim interaction was measured in the following AlphaLISA assay.
Recombinant human MCL-1 protein (C-terminal 6×His Tagged Mcl-1 containing residues 171-327) was generated at Gilead Sciences, Inc. (Foster City, Calif.). A biotinylated peptide derived from human Bim (residues 51-76) was purchased from CPC Scientific (Sunnyvale, Calif.). (CPC 834113). AlphaLISA anti-6His-acceptor beads (AL128R), AlphaScreen Streptavidin donor beads (6760002B), and Proxiplate-384 Plus (6008289) were purchased from PerkinElmer.
The AlphaLISA assay was performed in a 384-well Proxiplate in a total volume of […]. The reaction mixture contained 0.0625 nM 6×His-Mcl-1 (171-327), 0.0625 nM biotinylated-Bim peptide, 10 μg/mL AlphaLISA anti-6×His-AlphaLISA acceptor beads, […] AlphaScreen streptavidin donor beads, and serially diluted test compounds in the binding buffer (20 mM Hepes, pH 7.5 (Teknova H1035); 150 mM NaCl (Promega V4221); 0.002% Brij 35 (Thermo Scientific 20150); 1 mM Dithiothreitol (DTT) Solution (Affymetrix 70726); 0.01% BSA (BioLabs B9000S)). 1,000×test compounds were pre-spotted onto 384-well Proxiplate (Labcyte Echo) by Echo 555 Liquid Handler (Labcyte Inc., San Jose, Calif.) followed by incubation of 5 μl Mcl-1(171-327) for 1 hour. Then 5 μL Bim (51-76) was added and incubated for 2 hours. Five μL AlphaLISA anti-6His-AlphaLISA acceptor beads were then added for 1 hour followed by addition of 5 μL AlphaScreen streptavidin donor beads for 1 hour. The reaction plates were then read on an Envision multimode reader (PerkinElmer) using AlphaScreen settings. […] Percent inhibition was calculated as shown below: % Inhibition=100%*(Well−Neg)/(Pos−Neg) Neg: negative control, DMSO Pos: positive control, no Mcl-1 protein, no biotinylated-Bim peptide

SKBR3 cells = experiment: SKBR3 Cell Viability Assay (CellTiter Glo); type: cell-based; conditions: CellTiter Glo luminescence, read-out: MCL-1 CV SKBR3 EC50
Method: SKBR3 Cell Viability Assay Materials
SKBR3 Cells (ATCC HTB-30) were obtained from ATCC (Manassas, Va.) and cultured in McCoy 5A's medium (ATCC 30-2007)+10% fetal bovine serum (SH30071.03, HyClone, Pittsburgh, Pa.) plus 1× Penicillin-Streptomycin L-glutamine (Corning 30-009-C1, Corning, N.Y.)).
The cell viability assay was conducted in a 384-well tissue culture plate (Grenier 781086, Monroe, N.C.) in a total volume of 70 μL. Test compounds were prepared in 1,000×, serially diluted, and pre-spotted into 384-well tissue culture plate by Echo 555 Liquid Handler (Labcyte Inc., San Jose, Calif.). Seventy μl of 6,000 SKBR3 cells were dispensed into each well of the plate and incubated at 37° C. with 5% CO2 for 72 hours. At the end of incubation, 2× CellTiter Glo (CTG) reagents (1 part buffer with 2 parts substrate) (Promega, Madison, Wis.) were prepared, and the plate and the reagent were equilibrated to room temperature for 30 minutes. CTG reagent was added to each plate by Biomek FX at 20 μL/well with 5 times pipetting and mixing to induce cell lysis. Luminescence was read by Envision multimode reader (PerkinElmer). […] Percent inhibition was calculated as followed: % Inhibition=100%*(Well−Neg)/(Pos−Neg) Neg, negative control, DMSO Pos, positive control, 10 μM Puromycin

Sequence of MCL-1/Bim interaction (recombinant human MCL-1 protein, residues 171-327; biotinylated human Bim peptide, residues 51-76) (Q07820 171-327): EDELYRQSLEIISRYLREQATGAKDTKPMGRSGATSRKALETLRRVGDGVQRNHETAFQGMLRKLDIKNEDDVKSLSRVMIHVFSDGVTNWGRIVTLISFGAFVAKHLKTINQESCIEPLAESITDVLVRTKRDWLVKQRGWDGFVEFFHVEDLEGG

| IC50 [1] | EC50 (SKBR3 cells; Homo sapiens, SK-BR-3, 72 h) | EC50 (SKBR3 cells; 72 hours) | SMILES |
| --- | --- | --- | --- |
| 0.2 nM | 3810 nM |  | CO[C@H]1/C=C/CCCS(=O)(NC(=O)CCn2ccnn2)=NC(=O)c2ccc3c(c2)N(C[C@@H]2CC[C@H]21)C[C@@]1(CCCc2cc(Cl)ccc21)CO3 (single isomer, unassigned) [Example 54] |
| 0.9 nM | 902 nM |  | CO[C@H]1/C=C/CCC[S@@](=O)(NC(=O)CCC(F)(F)F)=NC(=O)c2ccc3c(c2)N(C[C@@H]2CC[C@H]21)C[C@@]1(CCCc2cc(Cl)ccc21)CO3 [Example 94] |
| 0.116 nM | 94.1 nM |  | CO[C@H]1/C=C/C[C@H](C)C[S@@](=O)(NC(=O)c2cc3n(c2)CCOC3)=NC(=O)c2ccc3c(c2)N(C[C@@H]2CC[C@H]21)C[C@@]1(CCCc2cc(Cl)ccc21)CO3 [Example 139] |
| 0.478 nM | 130 nM |  | CO[C@H]1/C=C/C[C@H](C)C[S@@](=O)(NC(=O)c2cc(C)n(C)c2)=NC(=O)c2ccc3c(c2)N(C[C@@H]2CC[C@H]21)C[C@@]1(CCCc2cc(Cl)ccc21)CO3 [Example 413] |
| 0.149 nM | 176 nM |  | CO[C@H]1/C=C/C[C@H](C)C[S@@](=O)(NC(=O)[C@@]23COCC2C3)=NC(=O)c2ccc3c(c2)N(C[C@@H]2CC[C@H]21)C[C@@]1(CCCc2cc(Cl)ccc21)CO3 (stereo partly shown) [Example 446] |
| 0.032 nM | 39.4 nM |  | CO[C@H]1/C=C/C[C@H](C)C[S@@](=O)(NC(=O)N[C@H]2CC23CCOC3)=NC(=O)c2ccc3c(c2)N(C[C@@H]2CC[C@H]21)C[C@@]1(CCCc2cc(Cl)ccc21)CO3 (single isomer, unassigned) [Example 341] |
|  | 5800 nM |  | CO[C@H]1/C=C/C[C@H](C)[C@@H](C)[S@@](=O)(NC(=O)C(F)(F)F)=NC(=O)c2ccc3c(c2)N(C[C@@H]2CC[C@H]21)C[C@@]1(CCCc2cc(Cl)ccc21)CO3 [Example 370] |
|  |  | 7800 nM | CCC(=O)N[S@]1(=O)=NC(=O)c2ccc3c(c2)N(C[C@@H]2CC[C@H]2[C@@H](OC)/C=C/CCCC1)C[C@@]1(CCCc2cc(Cl)ccc21)CO3 [Example 69] |
|  |  | 7780 nM | CCOC(=O)N[S@]1(=O)=NC(=O)c2ccc3c(c2)N(C[C@@H]2CC[C@H]2[C@@H](OC)/C=C/CCC1)C[C@@]1(CCCc2cc(Cl)ccc21)CO3 [Example 9] |
|  |  | 10000 nM | CCC(=O)N[S@@]1(=O)=NC(=O)c2ccc3c(c2)N(C[C@@H]2CC[C@H]2[C@@H](OC)CCCCC1)C[C@@]1(CCCc2ccccc21)CO3 [Example 16] |

Second part, the compound before the results:

| SMILES | IC50 [1] | EC50 (SKBR3 cells; Homo sapiens, SK-BR-3, 72 h) | EC50 (SKBR3 cells; 72 hours) |
| --- | --- | --- | --- |
| CO[C@H]1/C=C/C[C@H](C)C[S@@](=O)(NC(=O)c2cc3n(c2)C(=O)CCC3)=NC(=O)c2ccc3c(c2)N(C[C@@H]2CC[C@H]21)C[C@@]1(CCCc2cc(Cl)ccc21)CO3 [Example 145] | 0.037 nM | 147 nM |  |
| CO[C@H]1/C=C/C[C@H](C)[C@@H](C)[S@@](=O)(NC(=O)c2cnn(C3COC3)c2)=NC(=O)c2ccc3c(c2)N(C[C@@H]2CC[C@H]21)C[C@@]1(CCCc2cc(Cl)ccc21)CO3 [Example 152] |  |  | 55.7 nM |
| CO[C@H]1/C=C/C[C@H](C)[C@@H](C)[S@@](=O)(NC(=O)CO[C@H]2CCOC[C@H]2F)=NC(=O)c2ccc3c(c2)N(C[C@@H]2CC[C@H]21)C[C@@]1(CCCc2cc(Cl)ccc21)CO3 [Example 133] | 0.051 nM | 130 nM |  |
| CO[C@H]1/C=C/C[C@H](C)C[S@@](=O)(NC(=O)N2CC(OC)(c3nccn3C)C2)=NC(=O)c2ccc3c(c2)N(C[C@@H]2CC[C@H]21)C[C@@]1(CCCc2cc(Cl)ccc21)CO3 [Example 276] | 0.068 nM | 64.3 nM |  |
| CO[C@H]1/C=C/C[C@H](C)C[S@@](=O)(NC(=O)N[C@H]2C[C@H](COC(=O)N(C)C)C2)=NC(=O)c2ccc3c(c2)N(C[C@@H]2CC[C@H]21)C[C@@]1(CCCc2cc(Cl)ccc21)CO3 [Example 335] | 0.235 nM | 66.2 nM |  |
| CCNC(=O)N[S@@]1(=O)=NC(=O)c2ccc3c(c2)N(C[C@@H]2CC[C@H]2[C@@H](OC)CCCCC1)C[C@@]1(CCCc2cc(Cl)ccc21)CO3 [Example 13] |  |  | 3270 nM |
| CO[C@H]1/C=C/C[C@H](C)C[S@@](=O)(NC(=O)N[C@@H]2C[C@H]2C(F)F)=NC(=O)c2ccc3c(c2)N(C[C@@H]2CC[C@H]21)C[C@@]1(CCCc2cc(Cl)ccc21)CO3 [Example 310] | 0.074 nM | 230 nM |  |
| COC1CN(C(=O)N[S@@]2(=O)=NC(=O)c3ccc4c(c3)N(C[C@@H]3CC[C@H]3[C@@H](OC)CCC[C@H](C)C2)C[C@@]2(CCCc3cc(Cl)ccc32)CO4)C1 [Example 244] | 0.032 nM | 116 nM |  |
| CO[C@H]1/C=C/CCC[S@@](=O)(NC(=O)CCc2ccncn2)=NC(=O)c2ccc3c(c2)N(C[C@@H]2CC[C@H]21)C[C@@]1(CCCc2cc(Cl)ccc21)CO3 [Example 38] | 0.2 nM | 280 nM |  |
| CO[C@H]1/C=C/C[C@H](C)C[S@@](=O)(NC(=O)N2CC(N(C)C)C2)=NC(=O)c2ccc3c(c2)N(C[C@@H]2CC[C@H]21)C[C@@]1(CCCc2cc(Cl)ccc21)CO3 [Example 333] | 0.039 nM | 38.3 nM |  |
| CO[C@H]1/C=C/CCC[S@@](=O)(NC(=O)C#CC(C)(C)C)=NC(=O)c2ccc3c(c2)N(C[C@@H]2CC[C@H]21)C[C@@]1(CCCc2cc(Cl)ccc21)CO3 [Example 36] | 8.1 nM | 10000 nM |  |
| CO[C@H]1/C=C/C[C@H](C)C[S@@](=O)(NC(=O)N2CC3(CCOC3)C2)=NC(=O)c2ccc3c(c2)N(C[C@@H]2CC[C@H]21)C[C@@]1(CCCc2cc(Cl)ccc21)CO3 [Example 456] | 0.099 nM | 174 nM |  |
| CO[C@H]1/C=C/C[C@H](C)C[S@@](=O)(NC(=O)N[C@@H]2C[C@@H]2F)=NC(=O)c2ccc3c(c2)N(C[C@@H]2CC[C@H]21)C[C@@]1(CCCc2cc(Cl)ccc21)CO3 [Example 116] | 0.08 nM | 141 nM |  |
| CO[C@H]1/C=C/C[C@H](C)[C@@H](C)S(=O)(=O)NC(=O)c2ccc3c(c2)N(C[C@@H]2CC[C@H]21)C[C@@]1(CCCc2cc(Cl)ccc21)CO3 [Comparative Example 1, reference compound] |  |  | 2190 nM |
| CCC(=O)N[S@@]1(=O)=NC(=O)c2ccc3c(c2)N(C[C@@H]2CC[C@H]2[C@@H](O)/C=C/CCC1)C[C@@]1(CCCc2cc(Cl)ccc21)CO3 [Example 62] |  |  | 2430 nM |
| CCNC(=O)N[S@@]1(=O)=NC(=O)c2ccc3c(c2)N(C[C@@H]2CC[C@H]2[C@@H](OC)CCCCC1)C[C@@]1(CCCc2cc(Cl)ccc21)CO3 [Example 14] |  |  | 356 nM |
| CCC(=O)NS1(=O)=NC(=O)c2ccc3c(c2)N(C[C@@H]2CC[C@H]2[C@@H](OC)/C=C/CCC1)C[C@@]1(CCCc2cc(Cl)ccc21)CO3 (single isomer, unassigned) [Example 4] |  |  | 899 nM |
| COC1Cc2cc(C(=O)N[S@@]3(=O)=NC(=O)c4ccc5c(c4)N(C[C@@H]4CC[C@H]4[C@@H](OC)/C=C/C[C@H](C)C3)C[C@@]3(CCCc4cc(Cl)ccc43)CO5)cn2C1 (stereo partly shown) [Example 205] |  |  | 58.9 nM |
| CCC(=O)N[S@@]1(=O)=NC(=O)c2ccc3c(c2)N(C[C@@H]2CC[C@H]2[C@@H](OC)CCCCC1)C[C@@]1(CCCc2cc(Cl)ccc21)CO3 [Example 11] |  |  | 10000 nM |
| CO[C@H]1/C=C/C[C@H](C)C[S@@](=O)(NC(=O)C2CC(OC(F)F)C2)=NC(=O)c2ccc3c(c2)N(C[C@@H]2CC[C@H]21)C[C@@]1(CCCc2cc(Cl)ccc21)CO3 (stereo partly shown) [Example 431] |  | 233 nM |  |
| CCC(=O)N[S@]1(=O)=NC(=O)c2ccc3c(c2)N(C[C@@H]2CC[C@H]2[C@@H](O)/C=C/CCC1)C[C@@]1(CCCc2cc(Cl)ccc21)CO3 [Example 63] |  |  | 9710 nM |
| CO[C@H]1/C=C/CCC[S@@](N)(=O)=NC(=O)c2ccc3c(c2)N(C[C@@H]2CC[C@H]21)C[C@@]1(CCCc2cc(Cl)ccc21)CO3 [Example 5] |  |  | 10000 nM |

— US10703733B2, “MCL-1 inhibitors” (Gilead Sciences, Inc., priority 2018, dated 2020)
